Test results reported in ChEMBL document CHEMBL1127438, “Substituted (S)-phenylpiperidines and rigid congeners as preferential dopamine autoreceptor antagonists: synthesis and structure-activity relationships” (J Med Chem, 1994).
Values joined by “and” are separate entries in the source; they are usually repeats but may differ in a detail not shown here. Equal values may be shown once.

Assays:
[1] = organism: Rattus norvegicus; test: Compound is tested for concomitant ability to antagonize the locomotor activity induced by Di-Pr-5,6-ADTN; assay type: functional
[2] = biological target: Dopamine receptor; test: Tested for in vitro binding affinity against cloned mammalian dopamine autoreceptor (DA) receptors expressed in CHO-K1 cells using [3H]U-86170 as radioligand; assay type: cell-based
[3] = system: Rattus norvegicus; test: Evaluated for locomotor activity in nonpretreated habituated rats at 100 umol/kg of subcuteneous dose; assay type: functional; parameters: unit not given here
[4] = system: Rattus norvegicus; test: Compound is evaluated for locomotor activity in reserpine-pretreated habituated rats at 100 umol/kg of subcuteneous dose; assay type: functional
[5] = system: Rattus norvegicus; test: Compound is evaluated for biochemical accumulation of DOPAC in nonpretreated habituated rats for subcuteneous dose of 100 micro mol/kg in rat striatum; assay type: functional
[6] = system: Rattus norvegicus; test: Effect (60 min after administration of 200 (micro mol/kg) subcuteneous dose on DA release in brain dialysis model of rat striatum; assay type: functional
[7] = system: Rattus norvegicus; test: Compound is evaluated biochemically in nonhabituated rats for (100 umol/kg) subcuteneous dose, Value expressed as locomotor activity (LMA); assay type: functional
[8] = biological target: T1, D(2) dopamine receptor (Homo sapiens, UniProt P14416); test: biochemical
Description: Affinity against recombinant dopamine receptor (DA) D2 expressed in CHO-K1 cells, using [3H]-spiperone as radioligand

[9] = biological target: D(3) dopamine receptor (Homo sapiens, UniProt P35462); test: Tested for in vitro binding affinity against cloned mammalian dopamine D3 receptor, expressed in CHO-K1 cells, using [3H]spiperone as radioligand; assay type: cell-based
[10] = biological target: D(2) dopamine receptor (Rattus norvegicus, UniProt P61169)
Description: Affinity against striatal dopamine D2 receptors using [3H]spiperone as radioligand in rats.

[11] = system: Rattus norvegicus; test: Compound is evaluated for DOPA accumulation (DOPAacc) level in nonhabituated rats after subcuteneous dose (100 uM/kg) in rat striatum; assay type: functional
[12] = biological target: T1, D(2) dopamine receptor; test: biochemical; remark: listed apart in the source
Description: In vitro binding affinity against cloned mammalian dopamine D2 autoreceptor, expressed in CHO-K1 cells, using [3H]U-86170 as radioligand

T1 sequence (P14416 whole entry): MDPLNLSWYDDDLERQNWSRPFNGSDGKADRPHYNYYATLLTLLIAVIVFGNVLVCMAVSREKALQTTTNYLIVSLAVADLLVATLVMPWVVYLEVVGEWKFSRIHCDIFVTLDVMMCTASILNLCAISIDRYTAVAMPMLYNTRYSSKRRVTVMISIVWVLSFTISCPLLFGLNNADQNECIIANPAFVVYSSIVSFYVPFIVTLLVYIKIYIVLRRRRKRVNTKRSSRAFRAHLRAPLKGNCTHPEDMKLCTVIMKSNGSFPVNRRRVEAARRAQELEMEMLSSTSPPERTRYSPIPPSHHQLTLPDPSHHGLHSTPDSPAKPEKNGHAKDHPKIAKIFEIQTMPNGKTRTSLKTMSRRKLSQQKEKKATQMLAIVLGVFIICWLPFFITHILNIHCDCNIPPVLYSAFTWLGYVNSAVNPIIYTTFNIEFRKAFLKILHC
Chain of D(2) dopamine receptor (Rattus norvegicus, UniProt P61169) (P61169 whole entry): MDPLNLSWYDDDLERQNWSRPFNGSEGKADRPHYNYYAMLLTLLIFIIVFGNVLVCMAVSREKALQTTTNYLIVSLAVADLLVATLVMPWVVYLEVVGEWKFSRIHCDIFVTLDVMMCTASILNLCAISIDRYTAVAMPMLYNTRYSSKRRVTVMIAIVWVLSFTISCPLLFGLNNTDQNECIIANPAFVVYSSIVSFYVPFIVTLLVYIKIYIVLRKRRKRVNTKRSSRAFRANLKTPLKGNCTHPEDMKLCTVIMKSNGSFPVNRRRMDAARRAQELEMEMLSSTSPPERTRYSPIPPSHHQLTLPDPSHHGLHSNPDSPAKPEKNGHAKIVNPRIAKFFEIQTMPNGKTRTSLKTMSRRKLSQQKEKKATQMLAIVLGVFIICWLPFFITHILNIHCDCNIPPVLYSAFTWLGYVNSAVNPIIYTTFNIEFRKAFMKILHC
Chain of D(3) dopamine receptor (P35462 whole entry): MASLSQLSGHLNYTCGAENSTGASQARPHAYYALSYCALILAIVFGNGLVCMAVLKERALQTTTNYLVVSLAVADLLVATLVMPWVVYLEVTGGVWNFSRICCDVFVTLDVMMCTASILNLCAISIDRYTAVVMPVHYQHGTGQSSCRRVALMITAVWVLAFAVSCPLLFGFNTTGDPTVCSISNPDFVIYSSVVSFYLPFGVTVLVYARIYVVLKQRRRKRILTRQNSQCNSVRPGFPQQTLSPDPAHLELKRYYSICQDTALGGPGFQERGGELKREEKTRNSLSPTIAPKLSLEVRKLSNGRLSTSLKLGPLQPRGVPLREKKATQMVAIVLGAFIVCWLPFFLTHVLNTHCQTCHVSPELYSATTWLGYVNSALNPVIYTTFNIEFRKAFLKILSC

SMILES | LMA [1] | Ki [2] | LMA [3] | LMA [4] | Activity [5] | Activity [6] | Control [7] | Ki [8] | Ki [9] | Ki [10] | Control [11] | Ki [12]
CCCN1CCC[C@@H](c2cccc(OS(=O)(=O)C(F)(F)F)c2)C1 | 78% | 40 nM | 290 | 26 | 264% and 89% | 223% | – | – | – | – | – | –
CCCN1CCC[C@@H](c2cccc(OCC(F)(F)F)c2)C1 | – | – | – | – | – | – | 90% | > 217 nM | 1410 nM | 1670 nM | 96% | 820 nM
